In PMC10482942, “Novel quinazoline-1,2,3-triazole hybrids with anticancer and MET kinase targeting properties” (Scientific Reports, 2023):

Experiments:
AsPC-1 cells = test: SRB antiproliferative assay, monolayer culture; assay type: cell-based, human; conditions: mean ± S.E.M.
Description: (§1) EBC-1 (human lung […] cells with MET gene amplification) and Mia-Paca-2 (human PDAC cells) were obtained from Japanese Collection of Research Bio Resources Cell Bank (JCRB). AsPC-1 (human PDAC), MKN-45 (human gastric adenocarcinoma cells with MET gene amplification), HT-29 (human colorectal adenocarcinoma), and K562 cells (human chronic myelogenous leukemia) were obtained from the Iranian Biological Resource Centre, Tehran, Iran. AsPC-1, EBC-1, MKN-45, and K562 cells were cultured in RPMI 1640 medium containing 10% heat-inactivated fetal bovine serum (FBS) and 1% penicillin/streptomycin. Mia-Paca-2 and HT-29 cells were grown in DMEM low glucose, containing 10% and 20% heat-inactivated FBS, resoectively and 100 U/ml penicillin/streptomycin. All cells were grown in monolayer cultures at 37 °C in a humidified incubator with 5% CO2.
(§2) Antiproliferative effects of synthetic compounds were evaluated by the SRB assay as described previously. Cancer cells were trypsinized, homogenous cell suspensions were prepared and 100 µl of cell suspensions were cultured at the densities of 5 × 10^4 cells/ml (for AsPC-1 and Mia-Paca-2), 4 × 10^4 cells/m (for EBC-1 and MKN-45), 3 × 10^4 cells/ml (for K562) and 1 × 10^4 cells/ml (for HT-29) in 96-well flat-bottom plates. After 24 h of incubation to allow cells to attach and resume optimal growth, the synthetic compounds dissolved in DMSO and diluted in the growth medium were added. One hundred µl of synthesized derivatives were added at different concentrations in triplicate and incubated for an additional 72 h at 37 °C. The cells were then fixed by gentle addition of 50 μl cold trichloroacetic acid (TCA) 50% (w/v, 10% final concentration) and incubated for 60 min at 4 °C. Then, the supernatant was discarded, and the plates were washed four times with distilled water and air dried. Afterwards, 100 μl of SRB solution 0.04% (w/v) dissolved in 1% acetic acid was added to each well, and plates were incubated for 15 min at room temperature. At the next step, the unbound dye was removed by washing four times with 1% acetic acid and the plates were air dried. The bound stain was finally solubilized with 150 μl of 10 mM Tris base solution, and the absorbance was recorded at a wavelength of 540 nm with a Bio-Tek microplate reader (Model Synergy HTX).

EBC-1 cells = test: SRB antiproliferative assay, monolayer culture; assay type: cell-based, human; conditions: mean ± S.E.M.
Description: as §1, §2

HT-29 cells = test: SRB antiproliferative assay, monolayer culture; assay type: cell-based, human; conditions: mean ± S.E.M.
Description: as §1, §2

K562 cells = test: SRB antiproliferative assay, monolayer culture; assay type: cell-based, human; conditions: mean ± S.E.M.
Description: as §1, §2

MKN-45 cells = test: SRB antiproliferative assay, monolayer culture; assay type: cell-based, human; conditions: mean ± S.E.M.
Description: as §1, §2

Mia-Paca-2 cells = test: SRB antiproliferative assay, monolayer culture; assay type: cell-based, human; conditions: mean ± S.E.M.
Description: as §1, §2

SMILES: COc1cc2nccc(Oc3ccc(NC(=O)C4(C(=O)Nc5ccc(F)cc5)CC4)cc3)c2cc1OC [Cabozantinib, reference compound]
- IC50 (AsPC-1 cells; Homo sapiens, ASPC1, 72 h): 1.4 ± 0.1 µM
- IC50 (EBC-1 cells; Homo sapiens, EBC-1, 72 h): 0.059 ± 0.014 µM
- IC50 (HT-29 cells; Homo sapiens, HT-29, 72 h): 3.7 ± 0.67 µM
- IC50 (K562 cells; Homo sapiens, K562, 72 h): 4 ± 1 µM
- IC50 (MKN-45 cells; Homo sapiens, MKN-45, 72 h): 1.04 ± 0.06 µM
- IC50 (Mia-Paca-2 cells; Homo sapiens, MIA PaCa-2, 72 h): 3.8 ± 0.6 µM

SMILES: Brc1ccc(Cn2cc(COc3ccc(C=NNc4ncnc5ccccc45)cc3)nn2)cc1 [Compound 8a, 2-(4-((1-(4-Bromobenzyl)-1H-1,2,3-triazol-4-yl)methoxy)benzylidene)-1-(quinazolin-4-yl)hydrazine]
- IC50 (AsPC-1 cells; Homo sapiens, ASPC1, 72 h): > 100 µM
- IC50 (EBC-1 cells; Homo sapiens, EBC-1, 72 h): > 100 µM
- IC50 (HT-29 cells; Homo sapiens, HT-29, 72 h): > 100 µM
- IC50 (K562 cells; Homo sapiens, K562, 72 h): 57.4 ± 21.9 µM
- IC50 (MKN-45 cells; Homo sapiens, MKN-45, 72 h): > 100 µM
- IC50 (Mia-Paca-2 cells; Homo sapiens, MIA PaCa-2, 72 h): > 100 µM
- melting point: 207.3 °C

SMILES: C(=NNc1ncnc2ccccc12)c1ccc(OCc2cn(Cc3ccccc3)nn2)cc1 [Compound 8g, 2-(4-((1-Benzyl-1H-1,2,3-triazol-4-yl)methoxy)benzylidene)-1-(quinazolin-4-yl)hydrazine]
- IC50 (AsPC-1 cells; Homo sapiens, ASPC1, 72 h): > 100 µM
- IC50 (EBC-1 cells; Homo sapiens, EBC-1, 72 h): > 100 µM
- IC50 (HT-29 cells; Homo sapiens, HT-29, 72 h): > 100 µM
- IC50 (K562 cells; Homo sapiens, K562, 72 h): 96.6 ± 1.1 µM
- IC50 (MKN-45 cells; Homo sapiens, MKN-45, 72 h): 67.7 ± 4.6 µM
- IC50 (Mia-Paca-2 cells; Homo sapiens, MIA PaCa-2, 72 h): > 100 µM
- melting point: 218.6 °C

SMILES: Fc1ccc(Cn2cc(COc3ccc(C=NNc4ncnc5ccccc45)cc3)nn2)cc1 [Compound 8b, 2-(4-((1-(4-Fluorobenzyl)-1H-1,2,3-triazol-4-yl)methoxy)benzylidene)-1-(quinazolin-4-yl)hydrazine]
- IC50 (AsPC-1 cells; Homo sapiens, ASPC1, 72 h): > 100 µM
- IC50 (EBC-1 cells; Homo sapiens, EBC-1, 72 h): > 100 µM
- IC50 (HT-29 cells; Homo sapiens, HT-29, 72 h): > 100 µM
- IC50 (K562 cells; Homo sapiens, K562, 72 h): > 100 µM
- IC50 (MKN-45 cells; Homo sapiens, MKN-45, 72 h): > 100 µM
- IC50 (Mia-Paca-2 cells; Homo sapiens, MIA PaCa-2, 72 h): > 100 µM
- melting point: 204.9 °C

SMILES: Clc1ccc(Cn2cc(COc3ccc(C=NNc4ncnc5ccccc45)cc3)nn2)cc1Cl [Compound 8d, 2-(4-((1-(3,4-Dichlorobenzyl)-1H-1,2,3-triazol-4-yl)methoxy)benzylidene)-1-(quinazolin-4-yl)hydrazine]
- IC50 (AsPC-1 cells; Homo sapiens, ASPC1, 72 h): > 100 µM
- IC50 (EBC-1 cells; Homo sapiens, EBC-1, 72 h): > 100 µM
- IC50 (HT-29 cells; Homo sapiens, HT-29, 72 h): 93.4 ± 2.2 µM
- IC50 (K562 cells; Homo sapiens, K562, 72 h): > 100 µM
- IC50 (MKN-45 cells; Homo sapiens, MKN-45, 72 h): 83.6 ± 6 µM
- IC50 (Mia-Paca-2 cells; Homo sapiens, MIA PaCa-2, 72 h): > 100 µM
- melting point: 224.6 °C

SMILES: O=C1c2ccccc2C(=O)N1CCCn1cc(COc2ccccc2C=NNc2ncnc3ccccc23)nn1 [Compound 8i]
- IC50 (AsPC-1 cells; 72 h): > 100 µM
- IC50 (EBC-1 cells; 72 h): 89.4 ± 4.3 µM
- IC50 (HT-29 cells; 72 h): > 100 µM
- IC50 (K562 cells; 72 h): 86.2 ± 3 µM
- IC50 (MKN-45 cells; 72 h): > 100 µM
- IC50 (Mia-Paca-2 cells; 72 h): > 100 µM

SMILES: Clc1ccc(Cn2cc(COc3ccc(C=NNc4ncnc5ccccc45)cc3)nn2)cc1 [Compound 8e, 2-(4-((1-(4-Chlorobenzyl)-1H-1,2,3-triazol-4-yl)methoxy)benzylidene)-1-(quinazolin-4-yl)hydrazine]
- IC50 (AsPC-1 cells; Homo sapiens, ASPC1, 72 h): > 100 µM
- IC50 (EBC-1 cells; Homo sapiens, EBC-1, 72 h): > 100 µM
- IC50 (HT-29 cells; Homo sapiens, HT-29, 72 h): > 100 µM
- IC50 (K562 cells; Homo sapiens, K562, 72 h): 61.5 ± 21.6 µM
- IC50 (MKN-45 cells; Homo sapiens, MKN-45, 72 h): > 100 µM
- IC50 (Mia-Paca-2 cells; Homo sapiens, MIA PaCa-2, 72 h): > 100 µM

SMILES: O=[N+]([O-])c1ccc(Cn2cc(COc3ccc(C=NNc4ncnc5ccccc45)cc3)nn2)cc1 [Compound 8f, 2-(4-((1-(4-Nitrobenzyl)-1H-1,2,3-triazol-4-yl)methoxy)benzylidene)-1-(quinazolin-4-yl)hydrazine]
- IC50 (AsPC-1 cells; Homo sapiens, ASPC1, 72 h): > 100 µM
- IC50 (EBC-1 cells; Homo sapiens, EBC-1, 72 h): > 100 µM
- IC50 (HT-29 cells; Homo sapiens, HT-29, 72 h): > 100 µM
- IC50 (K562 cells; Homo sapiens, K562, 72 h): > 100 µM
- IC50 (MKN-45 cells; Homo sapiens, MKN-45, 72 h): 56.6 ± 6.5 µM
- IC50 (Mia-Paca-2 cells; Homo sapiens, MIA PaCa-2, 72 h): > 100 µM
- melting point: 208.4 °C

SMILES: C[C@@H](Oc1cc(-c2cnn(C3CCNCC3)c2)cnc1N)c1c(Cl)ccc(F)c1Cl [Crizotinib, reference compound]
- IC50 (AsPC-1 cells; Homo sapiens, ASPC1, 72 h): 2.45 ± 1.3 µM
- IC50 (EBC-1 cells; Homo sapiens, EBC-1, 72 h): 0.006 ± 0.001 µM
- IC50 (MKN-45 cells; Homo sapiens, MKN-45, 72 h): 0.05 ± 0.003 µM
- IC50 (Mia-Paca-2 cells; Homo sapiens, MIA PaCa-2, 72 h): 2.36 ± 1.2 µM
